Assay results published in patent publication US20250129135A1, “Multi-Agonist and Use Thereof” (priority 2021, published 2025).
Like-named read-outs stand apart in the source and are kept apart here. Starred links: 1 amine or outer side, 2 acyl side, 3 side chain; linkers in the order of their positions; H or OH if unused. Non-standard residues stand in square brackets, D forms with d. Residues, ends and D or L forms follow the SMILES beside them. Groups on a side chain read outwards from the residue. *: point of attachment. C20 diacid = O=C(O)CCCCCCCCCCCCCCCCCCC(=O)*; γGlu = O=C(O)[C@H](CCC(=O)[*:2])N[*:1]; αMeF = C[C@](N)(Cc1ccccc1)C(=O)O; αMeL = CC(C)C[C@](C)(N)C(=O)O; AEEA = NCCOCCOCC(=O)O; Ac3c = NC1(C(=O)O)CC1; Aib = CC(C)(N)C(=O)O

Tests used:
Human GIP R = target: T1, Human GIP R (Homo sapiens, UniProt P48546); experiment: cAMP (HTRF) activity in CHO cells stably overexpressing GIP receptor; assay type: cell-based
T1 construct: expressed in transfected cells; host or cells: CHO
T1 sequence (P48546 22-466): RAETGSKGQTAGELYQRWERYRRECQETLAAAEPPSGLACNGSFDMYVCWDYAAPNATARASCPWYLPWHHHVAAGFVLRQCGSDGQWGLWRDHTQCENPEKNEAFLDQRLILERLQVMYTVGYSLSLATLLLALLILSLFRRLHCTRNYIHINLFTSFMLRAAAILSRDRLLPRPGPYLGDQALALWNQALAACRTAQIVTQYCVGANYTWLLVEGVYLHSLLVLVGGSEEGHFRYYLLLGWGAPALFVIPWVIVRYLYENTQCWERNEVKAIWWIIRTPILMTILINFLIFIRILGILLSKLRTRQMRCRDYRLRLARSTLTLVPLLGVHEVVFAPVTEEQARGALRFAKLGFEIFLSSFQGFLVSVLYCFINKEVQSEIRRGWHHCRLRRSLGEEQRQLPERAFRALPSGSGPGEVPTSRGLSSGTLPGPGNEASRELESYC
Method: (§1) By measuring the cAMP signal response levels of the aforementioned cells, the agonistic activity of individual compound towards the corresponding receptor was determined. The intracellular cAMP content was measured using reagent kit available from Cisbio Corp. based on HTRF (homogeneous time-resolved fluorescence) technology.
(§2) The cell fluid was transferred to 10 ml of HBSS for resuspension, and centrifuged at 1000 rpm for 5 minutes at room temperature.
(§3) 10 μL cell suspension was added to each well in the 384 well plate. […] Using the ECHO liquid transfer system, 100 nL of the prepared compound solution was added to the corresponding cell suspensions in the 384 well plate, rotated and shaken at 1000 rpm for 1 minute to mix evenly, and then incubated at room temperature for 60 minutes. 10 μL of detection reagent was added to each well after drug incubation was completed, and incubation was performed in the kit at room temperature for 60 minutes. […] GraphPad Prism 5 plotting software was used to create compound concentration response curves and EC50 (nM) values was calculated.

Human GCG R = target: T2, Human GCG R (Homo sapiens, UniProt P47871); experiment: cAMP (HTRF) activity in HEK-293 cells stably overexpressing human GCG receptor; assay type: cell-based; conditions: EC50 of human GCG / EC50 of compound
T2 construct: expressed in transfected cells; host or cells: HEK-293
T2 sequence (P47871 26-477): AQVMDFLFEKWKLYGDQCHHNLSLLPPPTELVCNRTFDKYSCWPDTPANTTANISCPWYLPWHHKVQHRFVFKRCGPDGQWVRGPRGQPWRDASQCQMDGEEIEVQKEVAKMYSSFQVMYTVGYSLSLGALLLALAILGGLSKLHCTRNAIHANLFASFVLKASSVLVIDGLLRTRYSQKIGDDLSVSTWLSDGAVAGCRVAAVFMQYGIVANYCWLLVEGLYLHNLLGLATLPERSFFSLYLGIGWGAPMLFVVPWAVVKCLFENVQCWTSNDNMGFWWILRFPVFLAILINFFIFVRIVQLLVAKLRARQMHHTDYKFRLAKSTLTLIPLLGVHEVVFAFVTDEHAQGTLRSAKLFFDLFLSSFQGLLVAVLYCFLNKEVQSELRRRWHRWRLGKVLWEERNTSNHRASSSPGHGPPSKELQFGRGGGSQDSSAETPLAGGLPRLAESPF
Method: as §1, §2, §3

RIN-m5F cells = assay type: cell-based, rat; conditions: for Rel. A (Relative Activity) on RIN-m5F: relative to GLP-1(7-37)
Method: This experiment measured the cAMP level produced by the compound on RIN-mF cells.
Frozen […] cells were placed in a 37° C. constant temperature water bath for rapid thawing and recovery. The cell solution was transferred to 10 ml of HBSS for resuspension, and centrifuged at 1000 rpm for 5 minutes at room temperature.
10 μL cell suspension was added to each well in the 384 well plate. […] Using the ECHO liquid transfer system, 100 nL of the prepared compound solution was added to the corresponding cell suspensions in the 384 well plate, rotated and shaken at 1000 rpm for 1 minute to mix evenly, and then incubated at room temperature for 60 minutes. 10 μL of detection reagent was added to each wells after drug incubation was completed, and incubation was performed for 60 minutes.

3T3-L1 adipocytes = conditions: for Rel. A (Relative Activity) on 3T3-L1 adipocyte: relative to GIP
Method: Mouse 3T3-L1 precursor adipocytes can be induced to differentiate into mature adipocytes. […] After the cells became full and contacted with each other, DMEM differentiation medium containing 20% FBS, 0.5 mM IBMX, 0.4 ug/mL dexamethasone, and 5 ug/mL insulin was used to induce differentiation of 3T3-L1 adipocyte. After 5 days of induction and cultivation, DMEM medium containing […], 4 ug/ml insulin, and 10 uM rosiglitazone was used to continue induction and cultivation for 3 days. Then, DMEM medium containing 10% FBS was used to continue cultivation for 2-3 days to induce mature 3T3-L1 adipocytes.
The cAMP level produced by the compound on 3T3-L1 adipocytes was determined in this experiment. The tested compound solution was diluted step by step according to a concentration gradient of 3 times, to obtain a total of 10 series of concentration solutions. The solutions were added to induced mature 3T3-L1 adipocytes and incubated at room temperature for 60 minutes. 10 μL detection reagent in the kit was added to each well after drug incubation, and incubated at room temperature for another 60 minutes. […] GraphPad Prism 5 plotting software was used to create compound concentration-effect curves and calculation was performed.

[1] = tested on: human primary liver cells; assay type: cell-based
Method: The cAMP levels produced by compounds on human primary liver cells were determined in this experiment. Human primary liver cells were purchased from Lonza (cell product number HUCPG).
Frozen human primary liver cells were placed in a 37° C. constant temperature water bath for rapid thawing and recovery. The cell solution was transferred to 10 ml of HBSS for resuspension, and centrifuged at 1000 rpm for 5 minutes at room temperature.
10 μL cell suspension was added to each well in the 384 well plate. […] Using the ECHO liquid transfer system, 100 nL of the prepared compound solution was added to the corresponding cell suspensions in the 384 well plate, rotated and shaken at 1000 rpm for 1 minute to mix evenly, and then incubated at room temperature for 60 minutes. 10 μL of detection reagent was added to each well after drug incubation was completed, and incubation was performed for 60 minutes.

Human GLP-1R = Human GLP-1R (Homo sapiens, UniProt P43220); experiment: cAMP (HTRF) activity in HEK-293 cells stably overexpressing human GLP-1 receptor; assay type: cell-based; set-up: expressed in transfected cells; host or cells: HEK-293; conditions: EC50 of human GLP-1 (7-37) / EC50 of compound
Sequence of Human GLP-1R (P43220 24-463): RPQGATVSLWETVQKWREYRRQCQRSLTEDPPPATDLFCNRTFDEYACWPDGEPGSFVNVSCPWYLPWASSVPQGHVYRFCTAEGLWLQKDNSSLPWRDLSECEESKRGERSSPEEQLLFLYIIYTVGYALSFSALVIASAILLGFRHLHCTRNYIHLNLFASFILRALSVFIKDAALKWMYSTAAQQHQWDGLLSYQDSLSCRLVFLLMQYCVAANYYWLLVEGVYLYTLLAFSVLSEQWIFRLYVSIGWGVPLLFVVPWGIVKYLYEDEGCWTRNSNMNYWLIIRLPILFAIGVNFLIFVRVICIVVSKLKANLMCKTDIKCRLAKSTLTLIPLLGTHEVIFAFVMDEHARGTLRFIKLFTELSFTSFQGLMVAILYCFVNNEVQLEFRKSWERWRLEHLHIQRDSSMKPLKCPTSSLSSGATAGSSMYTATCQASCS
Method: as §1, §2, §3

C57 BL/6J DIO mice = experiment: In vivo pharmacodynamics in high-fat diet induced obesity (DIO) mice; set-up: species or system mouse; conditions: Table 9-1; 3 nmol/kg; Day 15; Mean±SEM
From the text: High-fat diet induced obesity (DIO) mice have characteristics such as obesity, elevated blood sugar, insulin resistance, and lipid abnormalities, all of which are very significant metabolic syndromes similar to a human body. The effects of the compounds of the present application on body weight, food intake, blood sugar, and lipids in C57 BL/6J DIO mice were studied.
Obesity was induced in mice by feeding with a high-fat diet (60 kcal % of calories from fat). […] After grouping, one animal was raised in each cage for one week, during which each of the animals was injected subcutaneously (S.C.) with a solvent (1×PBS, 5 ml/kg) to pre-adapt the experimental operation process.
After the preparation of animals, vehicle control or compounds were administered to groups of animals by subcutaneous injection, in which the compounds were dissolved in 1×PBS, the dosage was 5 ml/kg, and the administration operation was started at 9:00 am and conducted once every three days (Q3D) for 15 days. Throughout the entire experimental study, animal weight and food intake were measured daily before administration, and compared with initial weight and food intake of the same animal before administration to calculate a percentage change in animal weight (%) and cumulative food intake, so as to evaluate the impact of compounds on changes in body weight and food intake.
At the end point of the experiment (Day 15), the body weight of the mice was measured, and then fasting blood glucose was measured by taking blood from the tail tip of broken tail without anesthesia. After the blood collection, the animals were anesthetized with CO2 and euthanized. Then, blood was taken from the heart and plasma was separated by centrifugation. The plasma was used to measure total cholesterol (TC), low-density lipoprotein cholesterol (LDL-C), triglycerides (TG), and blood insulin content. The liver was separated for homogenization, and then centrifuged to obtain the supernatant for determining triglyceride content in the liver.
All results were expressed in Mean±SEM, and the results were analyzed by one-way ANOVA using GraphPad Prism 5 software, followed by Dunnett's post hoc test compared to the Vehicle control group. The difference at the p<0.05 level was considered statistically significant.

Molecule	Rel. A (Relative Activity) on RIN-m5F (RIN-m5F cells) [%]	EC50 (3T3-L1 adipocytes) [nM]	Rel. A (Relative Activity) on 3T3-L1 adipocyte (3T3-L1 adipocytes) [%]	Human GLP-1R Rel. A (Relative Activity) (Human GLP-1R) [%]	further results
CC[C@H](C)[C@H](NC(=O)[C@H](Cc1ccccc1)NC(=O)[C@H](C)NC(=O)C(C)(C)NC(=O)[C@H](CCC(N)=O)NC(=O)[C@H](C)NC(=O)[C@H](CCCCNC(=O)COCCOCCNC(=O)COCCOCCNC(=O)CC[C@H](NC(=O)CCCCCCCCCCCCCCCCCCC(=O)O)C(=O)O)NC(=O)[C@H](CCCCN)NC(=O)[C@H](CC(=O)O)NC(=O)[C@H](CC(C)C)NC(=O)[C@](C)(CC(C)C)NC(=O)[C@@H](NC(=O)[C@H](CO)NC(=O)[C@H](Cc1ccc(O)cc1)NC(=O)[C@H](CC(=O)O)NC(=O)[C@H](CO)NC(=O)[C@@H](NC(=O)[C@](C)(Cc1ccccc1)NC(=O)[C@@H](NC(=O)CNC(=O)[C@H](CCC(N)=O)NC(=O)C(C)(C)NC(=O)[C@@H](N)Cc1ccc(O)cc1)[C@@H](C)O)[C@@H](C)O)[C@@H](C)CC)C(=O)N[C@@H](CCC(=O)O)C(=O)N[C@@H](Cc1ccccc1)C(=O)N[C@@H](CC(C)C)C(=O)N[C@@H](CC(C)C)C(=O)N[C@@H](CCC(=O)O)C(=O)N[C@@H](CO)C(=O)NC(C)(C)C(=O)N1CCC[C@H]1C(=O)N[C@@H](CO)C(=O)N[C@@H](CO)C(=O)NCC(=O)N[C@@H](C)C(=O)N1CCC[C@H]1C(=O)N1CCC[C@H]1C(=O)NC1(C(=O)N[C@@H](CO)C(N)=O)CC1 [Compound 28] (H-Y[Aib]QGT[αMeF]TSDYSI[αMeL]LDKK([AEEA-AEEA-γGlu-C20 diacid])AQ[Aib]AFIEFLLES[Aib]PSSGAPP[Ac3c]S-NH2)	131.63	9.85	38.61	183.33	Human GIP R Rel. A (Relative Activity) (Human GIP R; EC50 of human GIP / EC50 of compound): 1645.45%; EC50 (Human GIP R; stable transfected cell cAMP activity, at least 3 independent tests): 0.011 nM; Human GCG R Rel. A (Relative Activity) (Human GCG R): 37.01%; EC50 (RIN-m5F cells): 0.784 nM; EC50 [1]: 5.21 nM; Rel. A (Relative Activity) on human primary liver cells ([1]; relative to GCG): 74.74%
GLP-1(7-37) [reference compound]	100.00			100.00	EC50 (RIN-m5F cells; cAMP, at least 3 independent tests, read-out: EC50 on RIN-m5F rat pancreatic islet tumor cells): 1.03 nM
CC[C@H](C)[C@H](NC(=O)[C@H](Cc1ccccc1)NC(=O)[C@H](C)NC(=O)C(C)(C)NC(=O)[C@H](CCC(N)=O)NC(=O)[C@H](C)NC(=O)[C@H](CCCCNC(=O)COCCOCCNC(=O)COCCOCCNC(=O)CC[C@H](NC(=O)CCCCCCCCCCCCCCCCCCC(=O)O)C(=O)O)NC(=O)[C@H](CCCCN)NC(=O)[C@H](CC(=O)O)NC(=O)[C@H](CC(C)C)NC(=O)[C@](C)(CC(C)C)NC(=O)[C@@H](NC(=O)[C@H](CO)NC(=O)[C@H](Cc1ccc(O)cc1)NC(=O)[C@H](CC(=O)O)NC(=O)[C@H](CO)NC(=O)[C@@H](NC(=O)[C@](C)(Cc1ccccc1F)NC(=O)[C@@H](NC(=O)CNC(=O)[C@H](CCC(N)=O)NC(=O)C(C)(C)NC(=O)[C@@H](N)Cc1ccc(O)cc1)[C@@H](C)O)[C@@H](C)O)[C@@H](C)CC)C(=O)N[C@@H](CCC(=O)O)C(=O)N[C@@H](Cc1ccccc1)C(=O)N[C@@H](CC(C)C)C(=O)N[C@@H](CC(C)C)C(=O)N[C@@H](CCC(=O)O)C(=O)NCC(=O)NCC(=O)N1CCC[C@H]1C(=O)N[C@@H](CO)C(=O)N[C@@H](CO)C(=O)NC(C)(C)C(=O)N[C@@H](Cc1c[nH]cn1)C(=O)N1CCC[C@H]1C(=O)N1CCC[C@H]1C(=O)N1CCC[C@H]1C(=O)N[C@@H](CO)C(N)=O [Compound 24]					Liver TG (C57 BL/6J DIO mice): 30.7 ± 1.31 mg
CC[C@H](C)[C@H](NC(=O)[C@H](Cc1ccccc1)NC(=O)[C@H](C)NC(=O)C(C)(C)NC(=O)[C@H](CCC(N)=O)NC(=O)[C@H](C)NC(=O)[C@H](CCCCNC(=O)COCCOCCNC(=O)CC[C@H](NC(=O)CCCCCCCCCCCCCCCCCCC(=O)O)C(=O)O)NC(=O)[C@H](CCCCN)NC(=O)[C@H](CC(=O)O)NC(=O)[C@H](CC(C)C)NC(=O)[C@](C)(CC(C)C)NC(=O)[C@@H](NC(=O)[C@H](CO)NC(=O)[C@H](Cc1ccc(O)cc1)NC(=O)[C@H](CC(=O)O)NC(=O)[C@H](CO)NC(=O)[C@@H](NC(=O)[C@H](Cc1ccccc1)NC(=O)[C@@H](NC(=O)CNC(=O)[C@H](CCC(N)=O)NC(=O)C(C)(C)NC(=O)[C@@H](N)Cc1ccc(O)cc1)[C@@H](C)O)[C@@H](C)O)[C@@H](C)CC)C(=O)N[C@@H](CCC(=O)O)C(=O)N[C@@H](Cc1ccc(O)cc1)C(=O)N[C@@H](CC(C)C)C(=O)N[C@@H](CC(C)C)C(=O)N[C@@H](CCC(=O)O)C(=O)NC(C)(C)C(=O)NCC(=O)N1CCC[C@H]1C(=O)N[C@@H](CO)C(=O)N[C@@H](CO)C(=O)NCC(=O)N[C@@H](C)C(=O)N1CCC[C@H]1C(=O)N1CCC[C@H]1C(=O)N1CCC[C@H]1C(=O)N[C@@H](CO)C(N)=O [Compound 45] (H-Y[Aib]QGTFTSDYSI[αMeL]LDKK([AEEA-γGlu-C20 diacid])AQ[Aib]AFIEYLLE[Aib]GPSSGAPPPS-NH2)		8.11	46.89		
